This note sets out measurements from US11413301B2, “Composition comprising sea cucumber extract as effective ingredient for preventing and treating Bruch's membrane dysfunction-related disease” (priority 2016, dated 2022).

In one experiment the test system is human Bruch's membrane. The experiment in a line: Hydraulic conductivity of isolated Bruch's membrane (open-type Ussing chamber, fluid transport under hydrostatic pressure). Here is the method:
First, to confirm the waste transport ability, the hydraulic conductivity of the Bruch's membrane isolated from a donated eye was measured. The isolated Bruch's membrane was mounted in an open-type Ussing chamber to measure a quantitative change in fluid under hydrostatic pressure and calculate a change in hydraulic conductivity (FIGS. 5B and 5C). […] The data of FIG. 5D is expressed using a semi-log plot with the logarithmic scale on the y-axis to convert exponential decay to a linear plot. To maintain the function of photoreceptor cells, the Bruch's membrane requires a minimal hydraulic conductivity function, which represents a failure line. […] All of the hydraulic conductivities measured for the peripheral regions of the 11 macular degeneration patients may be observed to be below the mean regression line (refer to the black circle and the red line in FIG. 5E), showing that, in the peripheral region, rather than the macular region, the decrease in the material transport function progresses to a serious condition. […]
In addition, to investigate the improvement of the transport function of the Bruch's membrane according to the dose of the sea cucumber extract, Bruch's membranes isolated from the eyes of four donors ranging from 69 to 84 years of age were measured, a dose response curve for the improvement of hydraulic conductivity was expressed. […]

The test system of experiment [1] is MMP enzyme secreted from a human Bruch's membrane. In words: MMP secretion from Bruch's membrane incubated with Frondoside A (zymography). As to conditions: Frondoside A 167 μg/mL, 30 hours. Here is the method:
Zymography was performed using the solution incubated for 30 hours in the measurement of hydraulic conductivity in Example 10. Specifically, a Bruch's membrane was incubated with a Tris buffer solution as a control or a Frondoside A solution (167 μg/mL) for 30 hours, 50 μL of the resulting solution was mixed with 50 μL of the SDS sample buffer, and then 30 μL of the resulting mixture was loaded on a gel to measure an MMP enzyme secreted from a human Bruch's membrane.

For experiment [2], the system named is lipids of Bruch's membrane. The experiment in a line: Lipid removal from Bruch's membrane by Frondoside A (lipid extracted from membrane, TLC). Also noted: species or system human. As to conditions: Frondoside A 167 μg/mL, membrane after hydraulic conductivity measurement. Here is the method: To confirm the lipid removal effect of Frondoside A, after the measurement of hydraulic conductivity in Example 10, the Bruch's membrane was cut into a piece having a diameter of 6 mm, and then a lipid was extracted using a CM solution (chloroform:methanol=2:1), followed by evaporating the solvent. After 50 μL of a CM solution was added thereto again, 40 μL of the resulting solution was dropped on a silica gel TLC plate, and the type and amount of the lipid were analyzed.

Structures are written as SMILES. A value given as a limit tells only on which side of the number the result lay.

Regarding `COC1C(O)C(CO)OC(OC2C(O)COC(OC3C(C)OC(OC4C(O[C@H]5CC[C@]6(C)C7CCC89C(=O)O[C@@](C)(CCCC(C)C)[C@H]8[C@@H](OC(C)=O)C[C@@]9(C)C7=CC[C@H]6C5(C)C)OCC(OS(=O)(=O)[O-])C4O)C(OC4OCC(O)C(O)C4O)C3O)C2O)C1O.[Na+]` (stereo partly shown) [Frondoside A], the “effect on the improvement of hydraulic conductivity relative to the control” value with human Bruch's membrane (Frondoside A 167 μg/mL, control Tris buffer) is not below 1.6 fold. The “hydraulic conductivity Fold-change Mean ± SD (n)” value with human Bruch's membrane (Frondoside A 167 μg/ml) is 1.65 ± 0.2 (3) Fold-change. Further, the “secretion of Pro-MMP9 bound to the membrane” value in experiment [1] was “an enormous amount of Pro-MMP9 bound to the membrane was secreted”. Moreover, in experiment [2], the “removal of Ch from the Bruch's membrane” value is on record as “did not have an effect”, the “removal of ChE from the Bruch's membrane” value is given as “did not have an effect”, the “removal of TG from the Bruch's membrane” value is on record as “did not have an effect” and the “removal of phosphatidylcholine from the Bruch's membrane” value is on record as “had an effect of removing phosphatidylcholine”.
